In ChEMBL document CHEMBL1221248, “Synthesis and SAR of (piperazin-1-yl-phenyl)-arylsulfonamides: a novel series of atypical antipsychotic agents” (Bioorg Med Chem Lett, 2010):

Biological target: 5-hydroxytryptamine receptor 2C (Homo sapiens) (UniProt P28335)
Test: Antagonist activity at human 5HT2C receptor expressed in CHO cells assessed as inhibition of 5-HT-stimulated [35S]GTPgamma binding

Chain of 5-hydroxytryptamine receptor 2C (Homo sapiens) (P28335 whole entry, looked up): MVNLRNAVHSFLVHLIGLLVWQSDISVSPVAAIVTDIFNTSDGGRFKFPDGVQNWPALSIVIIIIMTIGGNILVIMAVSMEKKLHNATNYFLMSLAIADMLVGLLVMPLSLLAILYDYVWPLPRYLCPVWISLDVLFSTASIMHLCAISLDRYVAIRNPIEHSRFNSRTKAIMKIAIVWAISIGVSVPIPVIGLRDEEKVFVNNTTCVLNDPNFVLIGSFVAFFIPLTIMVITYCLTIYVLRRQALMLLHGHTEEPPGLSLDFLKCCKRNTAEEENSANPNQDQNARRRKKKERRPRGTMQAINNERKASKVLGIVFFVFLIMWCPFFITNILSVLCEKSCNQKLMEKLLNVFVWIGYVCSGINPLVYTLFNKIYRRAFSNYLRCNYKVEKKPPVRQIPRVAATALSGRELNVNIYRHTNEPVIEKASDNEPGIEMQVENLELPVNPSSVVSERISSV

**Q.** With `CC(C)N(c1cccc(N2CCN(C)CC2)c1)S(=O)(=O)c1ccc2ccccc2c1` as the compound, how does the inhibition read?
**A.** Its inhibition is “Dose-dependent effect”.
